Assay results from the METLIN SMRT retention time set (Domingo-Almenara et al. 2019).

assay: gradient 5% acetonitrile 3 min, to 50% in 2 min, to 85% in 15 min, held 3 min, 100 µL/min; conditions: column: Zorbax Extend-C18 2.1 x 50 mm; eluents: water / acetonitrile, 0.1% formic acid
In short: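 Retention time was recorded from adduct peaks, which were picked computationally and each inspected manually. Pure standards ran in mixtures of ~100 molecules on HPLC coupled to a quadrupole time-of-flight mass spectrometer, in positive and negative ionization mode, through a Zorbax Extend-C18 column (2.1 × 50 mm, 1.8 μm) at 100 μL/min. Eluents were water and acetonitrile, each with 0.1% formic acid.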

Structure (SMILES)	RP-LC retention time
COc1ccc(NC(=O)CC(C)=O)c(OC)c1	649 s
CCOCCCNC(=O)C1CCN(c2nnc3cccc(C)n23)CC1	593 s
CCCn1c(=O)sc2cc(S(=O)(=O)N3CCC(C(=O)NC4CCCC4)CC3)ccc21	890 s
CCOCC(=O)N1CCCN(C2=NS(=O)(=O)C(c3ccccc3)=C2C)CC1	688 s
Cc1noc(-c2ccc(=O)n(C(C)C)n2)n1	715 s
O=C(NCc1ccc(S(=O)(=O)c2cc(F)cc(F)c2)cc1)c1ccc2nccn2c1	724 s
CCOc1cc(C)c(S(=O)(=O)N2CCC(C(N)=O)CC2)cc1C	715 s
CCCNc1cc(N2CCC(CCC(=O)NCc3ccc(F)cc3Cl)CC2)ncn1	727 s
O=C(NC1CCCN(c2cc(-c3ccncc3)[nH]n2)C1)c1ccc(F)cc1 (stereo not given)	599 s
O=S(=O)(Cc1ccc(Cl)cc1)c1nc2ccccc2nc1N1CCOCC1	756 s
Cc1nnc(NC(=O)Cc2csc(SCC(=O)c3ccc(F)cc3)n2)s1	724 s
O=S(=O)(c1cccn2cnnc12)N(Cc1cccc(F)c1)c1ccc(F)c(F)c1	866 s
Cc1ccc(C(=O)Nc2ccc(N3CCN(C4CCCC4)C3=O)nc2)cc1F	918 s
COc1ccc(NC(=O)C2CCCCC2)c2ccccc12	861 s
Cc1ccc(NC(=O)C2CCN(C(=O)c3ncn4c3COC(c3ccc(F)cc3)C4)CC2)c(C)c1 (stereo not given)	832 s
Cn1cnc(S(=O)(=O)N2CCC(C(=O)Nc3ccc(F)c(Cl)c3)CC2)c1	762 s
CCOc1ccc(NC(=O)C2CCCN(C)C2)cc1 (stereo not given)	643 s
Cc1ccc(-c2ccc(N3CCCC(C(=O)N4CCCC4)C3)nn2)cc1 (stereo not given)	647 s
Cc1ccc(NC(=O)C2CCCN(c3ncnc4c3nc3n4CCCCC3)C2)cc1F (stereo not given)	785 s

Structure (SMILES)	RP-LC retention time
COc1c(C)cc(S(=O)(=O)NCCN2CCOCC2)c(C)c1C	568 s
Cc1ccc(CNC(=O)c2c(C)oc3nc(C)nc(N4CCOCC4)c23)cc1	787 s
Cn1cnc2c(NCc3ccccc3)nc(NCCO)nc21	657 s
O=C(NCc1ccc(F)cc1)C1CCc2nc(N3CCOCC3)ncc2C1 (stereo not given)	808 s
CCCCNC(=O)c1ccc(-c2nc(CCN(C)C(=O)CC)no2)cc1	740 s
COc1ccc(S(=O)(=O)N2CCC(n3cnc4ccc(C)cc4c3=O)CC2)cc1OC	827 s
Cc1cc(Cl)ccc1NC(=O)N1CCCC1c1nnc2n1CCN(C)CC2 (stereo not given)	584 s
COc1ccc2c(C)c(C(=O)Nc3cc(C)ns3)oc2c1	826 s
CN1CCN(c2ncncc2N2CCC(C(=O)N3CCN(c4ccccc4)CC3)CC2)CC1	570 s
Cc1ccc(C)c(N2C(=O)CN(S(C)(=O)=O)CC2(C)C(=O)NCc2ccc(F)cc2)c1 (stereo not given)	840 s
COC(=O)C1=C(C)NC(C)=C(C(=O)OC(C)(C)CN(C)CCC(c2ccccc2)c2ccccc2)C1c1cccc([N+](=O)[O-])c1 (stereo not given)	1010 s
Cc1cc(C)cc(NS(=O)(=O)c2c(C)sc(C)c2-c2cc(C(F)(F)F)on2)c1	1240 s
NC(=O)c1cnc(N[C@@H]2CCCC[C@@H]2N)nc1Nc1cccc(-n2nccn2)c1	654 s
O=C(Oc1coc(CSc2ncccn2)cc1=O)c1cccs1	695 s
O=C(CCC1CCCN(S(=O)(=O)c2ccccc2)C1)NCc1ccc(Cl)cc1 (stereo not given)	979 s
O=C(CCC(=O)N1CC2CCCN2c2ccccc21)NCCCN1CCCC1 (stereo not given)	627 s
CCCCCOC(=O)Nc1nc(=O)n(C2OC(C)C(O)C2O)cc1F (stereo not given)	874 s
COCCN1CC2(CCN(S(=O)(=O)c3ccc(F)cc3F)CC2)C1c1ccncc1 (stereo not given)	623 s
CCc1cc(C(=O)N2CCCC2c2cccc(F)c2)no1 (stereo not given)	944 s

Structure (SMILES)	RP-LC retention time
CCCn1c(C)cnc1C1CN(S(=O)(=O)c2ccc(F)c(F)c2)C1	695 s
COc1ccc(N2C(=O)CCC(C(=O)NCCCN3CCN(C)CC3)C2c2ccc(F)cc2)cc1 (stereo not given)	526 s
CC(=O)c1cccc(Nc2c(C(=O)N3CCCC3)cnc3nc(C)ccc23)c1	587 s
CCN(C(=O)C1CCN(C(=O)c2ccc(F)cc2)CC1)C1CCCCC1	885 s
COc1ccc2c(c1)C1(CCN(C(=O)c3ccccc3OC)C1)C(=O)N2 (stereo not given)	709 s
CCOC(=O)CSc1nnc(NC(=O)c2ccc(S(=O)(=O)N(C)C)cc2)s1	772 s
CCc1ccc2ncc(C#N)c(N3CCC(C(=O)NCc4ccc(F)cc4)CC3)c2c1	710 s
COc1cn(CC(=O)NCc2ccc(F)cc2)c(CN2CCC(C)CC2)cc1=O	550 s
Cc1nn2c(S(=O)(=O)N3CCC4(CC3)OCCO4)c(C)nc2s1	692 s
Cc1c(N2C(=O)[C@@H]3[C@H](O)CCN3C2=O)ccc(C#N)c1Cl	765 s
Cc1ccc(-c2nnc(N3CCC(C(=O)NCCN4CCCCCC4)CC3)o2)cc1	632 s
CC(C)NC(=O)CN1CCN(Cc2nc(-c3ccc(N4CCCC4)nc3)no2)CC1	541 s
Cc1cccc(C(=O)N2CCN(c3nnc4cccc(C)n34)CC2)c1	680 s
c1ccc(C(NCc2cccnc2)(c2ccccc2)c2ccccc2)cc1	831 s
CCOC(=O)c1cc(S(=O)(=O)N2CCCC2C(=O)NC2CCCCCC2)cn1C (stereo not given)	968 s
C=CCN1CCc2c(cc(O)c(O)c2Cl)C(c2ccccc2)C1 (stereo not given)	666 s
COc1ccc(C2=C(C)C(N3CCC(C(=O)NC4CCCC4)CC3)=NS2(=O)=O)cc1	780 s
Nn1c(Cc2ccccc2)nnc1Cc1ccccc1	744 s
Cc1ccc(Cl)c(NC(=O)c2[nH]c3cc(C)sc3c2CN2CCOCC2)c1	724 s

More lines, now with the values ahead:

RP-LC retention time	Structure (SMILES)
927 s	Cc1ccc(NC(=O)Cn2c(=O)n(-c3ccccc3)c(=O)c3c2cc(C)n3C)c(Cl)c1
772 s	CCC(=O)c1ccc2c(c1)N(CCCN(C)C)c1ccccc1S2
597 s	Cn1ncc2c3ccccc3n(CC(=O)NCCCN3CCN(Cc4ccccc4)CC3)c2c1=O
1260 s	Fc1ccc(C2Cn3nnc(-c4nc(-c5cccc(Cl)c5)no4)c3CO2)cc1 (stereo not given)
716 s	CNC(=O)Cc1csc(-c2ccc(F)cc2)n1
737 s	c1ccc(-n2nnc(-c3noc(-c4cccnc4)n3)c2-c2ccncc2)cc1
1110 s	CCc1cc(=O)n(CC(=O)N(C)c2cccc(C)c2)c(-c2ccccc2)n1
865 s	O=C(CSc1nc(-c2cccc([N+](=O)[O-])c2)cs1)NCc1ccc2c(c1)OCO2
1320 s	CCN(C(=O)c1ccco1)c1nc(-c2ccc(Br)cc2)cs1
593 s	CCCNC(=O)Cn1c(C2CCCO2)nc2ccccc21 (stereo not given)
931 s	O=C(CSc1cc(N2CCN(c3ccccc3F)CC2)ncn1)NCc1cccs1
621 s	CCc1nccn1Cc1nc(-c2ccc3c(c2)OCO3)no1
1170 s	Cn1cccc1C(=O)N1CC(Oc2ccc(-c3nc(-c4ccccc4)no3)cc2)C1
873 s	CCOc1cccc(CNc2c(C(=O)OC)c(=O)[nH]c3c(Cl)cccc23)c1
676 s	Cc1ccc(-c2nnc(-c3nc(NCc4cccnc4)c4ccccc4n3)o2)cc1
1040 s	CCCN1C(=O)COc2ccc(-c3noc(Cc4c[nH]c5ccccc45)n3)cc21
968 s	CCOc1cccc(-c2noc(-c3nn(-c4cccc(OC)c4)ccc3=O)n2)c1

RP-LC retention time	Structure (SMILES)
701 s	Cc1ccc(Nc2c(-c3ccccc3O)nc3cc(C)ccn23)cc1
827 s	Cc1c(Cl)cccc1NC(=O)N1C[C@H](c2nc(-c3ccncc3)no2)[C@@H](C)C1
748 s	Cn1c(-c2ccccc2)nn(CCNS(=O)(=O)c2ccc(Cl)s2)c1=O
920 s	Cc1oc(-c2ccccc2)nc1Cc1noc(-c2ccncc2)n1
871 s	O=C1NC2(CCN(C(=O)c3ccccc3F)CC2)N=C1c1ccc(Cl)cc1
1160 s	Cc1ccc2c(c1)N(C(=O)Cn1cccc1-c1nc(-c3ccc4c(c3)OCO4)no1)CCO2
805 s	O=C(CCc1ccccc1)Nc1nnc(C2CC(=O)N(c3ccc(Cl)cc3)C2)o1 (stereo not given)
993 s	Cc1ccc(S(=O)(=O)CC(=O)Nc2nc(-c3cccc([N+](=O)[O-])c3)cs2)cc1
952 s	Cc1ccc(CNC(=O)N2CCc3nc(-c4ccc(F)cc4)ncc3C2)cc1
806 s	CCOc1ccccc1C(=O)Nc1ccc2c(c1)Sc1ncccc1C(=O)N2C
820 s	COC(=O)c1c2c(nc3ccccc13)CCN(C(=O)Nc1ccccc1OC)C2
1130 s	O=C(Nc1nc(-c2ccc(F)cc2F)cs1)c1ccccc1F
859 s	COc1ccc(-c2ccnc3nc(CCc4ccc(OC)c(OC)c4)nn23)cc1
661 s	O=C1C(c2cccnc2)N(Cc2cccs2)C(=O)CN1c1ccccc1 (stereo not given)
678 s	COc1cccc(-c2noc(N3CCN(c4ccccn4)CC3)n2)c1
734 s	CCn1cc(C)c(C(=O)O)c1CC(=O)NCc1ccc2c(c1)OCO2
